From patent US20260055108A1, “TRIAZINE COMPOUNDS AND USES THEREOF” (HUTCHMED LIMITED, priority 2022, published 2026)
Like-named read-outs stand apart in the source and are kept apart here.

Assays:
[1] = tested on: MV-4-11 cells (human acute myelogenous leukemia cell line carrying MLL-AF4 mutation); assay: Cell proliferation assay, MV-4-11 (CellTiter-Glo); format: cell-based; settings: Homo sapiens, MV4-11, 72 h
Method: Example 4 Cell Proliferation Assay
MV-4-11 (ATCC, CRL-9591), a human acute myelogenous leukemia cell line carrying MLL-AF4 mutation. Cells were cultured in an IMDM medium containing 10% heat-inactivated fetal bovine serum (HIFBS) and supplemented with 50 μM β-mercaptoethanol.
2. Reagents, Materials and Instruments:
• IMDM culture solution: GIBCO, 12440-053; • HIFBS: GIBCO, 10100-147; • β-mercaptoethanol: Sigma, M3148; • CellTiter-Glo® 2.0 assay kit (CTG): Promega, G9243; • DMSO: Sigma, D4540; • 96-well cell culture plate: Corning, 3903; • Envision: PerkinElmer.
MV-4-11 cells were resuspended in a medium, added to a 96-well plate at a density of 3000 cells/well with a volume of 100 μL/well, and cultured in a cell incubator at 5% CO2 and 37° C. for 4 hours. The test compound subjected to gradient dilution with the medium was added to a cell culture plate, and the final concentrations of the compound were 1.100, 0.367, 0.122, 0.041, 0.014, 0.005, 0.002 and 0.001 μM, respectively. The corresponding volume of DMSO diluent was added to a blank control well, and the final concentrations of DMSO in the experimental group and control group were both 0.1%. The cell plate was placed in a cell incubator at 5% CO2 and 37° C. and cultured for 3 days.
On day 0 and day 3 of the treatment, 50 μL/well CTG reagent was added to the cell plate and shaken at room temperature in the dark for 10 min, and then the chemiluminescence value of each well was measured with Envision.
[formula] • wherein: • luminescence valuetest sample: the chemiluminescence value of a cell well treated with the test compound for 3 days. • luminescence valueday 0: the chemiluminescence value of a cell well at day 0. • luminescence valuecell well: the chemiluminescence value of a cell well not treated with the compound for 3 days.
(§1) • calculated by using software XL-Fit™ (version 5.3) supplied by ID Business Solutions (Guildford, UK), which is an additional software to Microsoft Excel.

[2] = target: Recombinant human Menin protein (2-610) / MLL polypeptide binding (Homo sapiens (Human), UniProt O00255); assay: Menin and MLL protein binding at a molecular level (fluorescence polarization method); settings: inhibition of Menin / MLL polypeptide binding
Source text: Example 3: Determination of the Activity of the Compounds of the Present Invention on Menin and MLL Protein Binding at a Molecular Level (Fluorescence Polarization Method)
1. Reagents, Materials and Instruments:
• Recombinant human Menin protein (2-610): ChemPartner, CP2021020801; • MLL polypeptide (6-FAM-Ahx-SG-40): GL Biochem, 865700; • Trizma® hydrochloride buffer solution (Tris): Sigma, T2194-1 L; • NaCl: Invitrogen, AM9760G; • TCEP: Sigma, 646547; • DMSO: Sigma, D4540; • 384-well plate: Corning, 4514; • Envision: PerkinElmer.
2. Preparation of Reaction Solutions
• 1) Buffer solution: 20 mL of Tris and 4 mL of NaCl were added respectively to 376 mL of ddH2O, with pH adjusted to 7.5, and TCEP was added before testing with a dilution ratio of 1:500. • 2) 5× test compounds: the test compound was subjected to gradient dilution with the buffer solution to 5-fold the reaction concentration, so that the final concentrations of the compound were 1.000, 0.333, 0.111, 0.037, 0.012, 0.004, 0.001 and 0.0005 μM, respectively. • 3) 2.5× Menin protein reaction solution: the Menin protein was diluted to 5 nM with the buffer solution. • 4) 2.5×MLL polypeptide reaction solution: the MLL polypeptide was diluted to 5 nM with the buffer solution.
1) Binding Reaction (20 μL System)
4 μL of 5× test compound was added to each reaction well of the 384-well plate, and the corresponding volume of 10% DMSO was added to the control wells. Except the control wells, 8 μL of Menin protein reaction solution was added to each well. The reaction solution was incubated at room temperature for 30 minutes, and then 8 μL of MLL polypeptide reaction solution was added to each well. The final concentrations of DMSO in the test compound wells and control wells were all 2%. The 384-well plate was sealed and incubated at room temperature for 30 minutes in the dark.
Three control groups were set up: • a blank control group only containing a buffer solution; • a negative control group only containing MLL polypeptide reaction solution; and • a positive control group containing Menin protein reaction solution and MLL polypeptide reaction solution.
The vertical polarization S value and the horizontal polarization P value (excitation wavelength was 480 nm, and emission wavelength was 535 nm) were measured with Envision.
Corrected S is the S value of the negative control group—the S value of the blank control group
Corrected P is the P value of the negative control group—the P value of the blank control group
as §1

[3] = MV-4-11 cells, 3 days treatment, CellTiter-Glo, read-out: GI50

Recombinant human Menin protein (2-610) / MLL polypeptide binding, sequence (O00255 2-610): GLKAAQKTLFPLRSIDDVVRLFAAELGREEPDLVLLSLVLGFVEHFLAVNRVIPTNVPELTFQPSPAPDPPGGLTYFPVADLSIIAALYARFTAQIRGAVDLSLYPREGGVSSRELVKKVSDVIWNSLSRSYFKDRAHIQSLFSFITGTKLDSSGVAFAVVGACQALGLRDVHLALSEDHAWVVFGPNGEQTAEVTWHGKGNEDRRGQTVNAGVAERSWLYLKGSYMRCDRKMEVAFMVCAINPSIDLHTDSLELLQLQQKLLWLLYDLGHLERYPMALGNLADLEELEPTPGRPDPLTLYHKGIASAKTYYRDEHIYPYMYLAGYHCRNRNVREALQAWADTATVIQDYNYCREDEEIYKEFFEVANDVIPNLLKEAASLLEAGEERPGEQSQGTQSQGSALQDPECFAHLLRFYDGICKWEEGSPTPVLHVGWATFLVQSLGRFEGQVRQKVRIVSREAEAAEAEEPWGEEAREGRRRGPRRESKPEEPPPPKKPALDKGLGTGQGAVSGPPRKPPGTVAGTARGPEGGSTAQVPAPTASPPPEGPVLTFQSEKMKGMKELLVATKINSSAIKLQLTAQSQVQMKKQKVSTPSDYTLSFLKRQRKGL

Structure (SMILES) | GI50 [1, 3] | IC50 [2] | GI50 [1]
C[C@H]1CN(C)CCN1C(=O)c1cc(F)ccc1Oc1nncnc1N1CC2(CCN(CC3CCN(c4ccccn4)CC3)CC2)C1 [Compound 76] | 0.932 µM | 0.879 µM | –
CCN(C(=O)c1cc(F)ccc1Oc1nncnc1N1CC2(CCN(CC3CCN(c4ccccn4)CC3)CC2)C1)C(C)C [Compound 57, N-ethyl-5-fluoro-N-isopropyl-2-((5-(7-((1-(pyridin-2-yl)piperidin-4-yl)methyl)-2,7-diazaspiro[3.5]nonan-2-yl)-1,2,4-triazin-6-yl)oxy)benzamide] | 0.005 µM | 0.003 µM | –
CCN(C(=O)c1cc(F)ccc1Oc1nncnc1N1CC2(CCN(CC3CCN(C(=O)C4(C#N)CC4)CC3)CC2)C1)C(C)C [Compound 12] | 0.036 µM | 0.0198 µM | –
C=CC(=O)N1CC(C(=O)N2CCC(CN3CCC4(CC3)CN(c3ncnnc3Oc3ccc(F)cc3C(=O)N(CC)C(C)C)C4)CC2)C1 [Compound 18, 2-((5-(7-((1-(1-acryloylazetidine-3-carbonyl)piperidin-4-yl)methyl)-2,7-diazaspiro[3.5]nonan-2-yl)-1,2,4-triazin-6-yl)oxy)-N-ethyl-5-fluoro-N-isopropylbenzamide] | – | 0.0146 µM | 0.012 µM
CCN(C(=O)c1cc(F)ccc1Oc1nncnc1N1CC2(CCN(CC3CCC(O)(c4ccccn4)CC3)CC2)C1)C(C)C (centres unmarked) [Compound 125] | 0.585 µM | > 0.2 µM | –
Cc1ccc(N2CCC(CN3CCC4(CC3)CN(c3ncnnc3Oc3ccc(F)cc3-c3ccnn3C(C)C)C4)CC2)nn1 [Compound 86] | 0.006 µM | 0.0011 µM | –
CCN(C(=O)c1cc(F)ccc1Oc1nncnc1N1CC2(CCC(CN3CCN(c4ccccn4)CC3)CC2)C1)C(C)C [Compound 173, N-ethyl-5-fluoro-N-isopropyl-2-((5-(7-((4-(pyridin-2-yl)piperazin-1-yl)methyl)-2-azaspiro[3.5]nonan-2-yl)-1,2,4-triazin-6-yl)oxy)benzamide] | – | 0.75 µM | 0.292 µM
CCN(C(=O)c1cc(F)ccc1Oc1nncnc1N1CC2(CCN(CC3CCN(c4ccc(OC)nn4)CC3)CC2)C1)C(C)C [Compound 88] | 0.004 µM | 0.0011 µM | –
CCN(C(=O)c1cc(F)ccc1Oc1nncnc1N1CC2(CCN(CC3CCN(c4cnccn4)CC3)CC2)C1)C(C)C [Compound 40] | 0.023 µM | 0.0114 µM | –
CCN(C(=O)c1cc(F)ccc1Oc1nncnc1N1CC2(CCN(CC3CCN(c4cccc(CO)n4)CC3)CC2)C1)C(C)C [Compound 132, N-ethyl-5-fluoro-2-((5-(7-((1-(6-(hydroxymethyl)pyridin-2-yl)piperidin-4-yl)methyl)-2,7-diazaspiro[3.5]nonan-2-yl)-1,2,4-triazin-6-yl)oxy)-N-isopropylbenzamide] | 0.009 µM | 0.0027 µM | –
CCN(C(=O)c1cc(F)ccc1Oc1nncnc1N1CC2(CCN(CC3CCN(c4cnc(Cl)nn4)CC3)CC2)C1)C(C)C [Compound 41] | 0.008 µM | 0.0031 µM | –
CCN(C(=O)c1cc(F)ccc1Oc1nncnc1N1CC2(CCN(CC3CCN(c4ccc5ncnn5c4)CC3)CC2)C1)C(C)C [Compound 56] | 0.045 µM | 0.0284 µM | –
O=C(NC1CC1)N1CCC(CN2CCC3(CC2)CN(c2ncnnc2Oc2ccc(F)cc2)C3)CC1 [Compound 31] | 0.284 µM | 0.155 µM | –
CCN(C(=O)c1cc(F)ccc1Oc1nncnc1N1CC(C2CCCN2Cc2ccc3[nH]c(C#N)cc3c2C)C1)C(C)C (centres unmarked) [Compound 129] | 0.199 µM | 0.178 µM | –
CCN(C(=O)c1cc(F)ccc1Oc1nncnc1N1CC2(CCN(CC3CCN(c4ccncc4C(N)=O)CC3)CC2)C1)C(C)C [Compound 150, 4-(4-((2-(6-(2-(ethyl(isopropyl)carbamoyl)-4-fluorophenoxy)-1,2,4-triazin-5-yl)-2,7-diazaspiro[3.5]nonan-7-yl)methyl)piperidin-1-yl)nicotinamide] | 0.066 µM | 0.0415 µM | –
CCN(C(=O)c1cc(F)ccc1Oc1nncnc1N1CC2(CCN(CC3CCN(c4cnc(C#N)cn4)CC3)CC2)C1)C(C)C [Compound 49] | 0.024 µM | 0.0185 µM | –
CCN(C(=O)c1cc(F)ccc1Oc1nncnc1N1CC2(CCN(CC3CCN(c4cc(C)cnn4)CC3)CC2)C1)C(C)C [Compound 85] | 0.006 µM | 0.0042 µM | –
Cc1c(CN2CCC3(CC2)CN(c2ncnnc2Oc2ccc(F)cc2)C3)ccc2c1cc(C#N)n2CCO [Compound 155] | 0.276 µM | 0.292 µM | –
CCN(C(=O)c1cc(F)ccc1Oc1nncnc1N1CC2(CCN(Cc3ccc(Cl)nc3)CC2)C1)C(C)C [Compound 59] | > 3.3 µM | > 1 µM | –
CCN(C(=O)c1cc(F)ccc1Oc1nncnc1N1CC2(CCN(CC3CCN(C4COC4)CC3)CC2)C1)C(C)C [Compound 137, N-ethyl-5-fluoro-N-isopropyl-2-((5-(7-((1-(oxetan-3-yl)piperidin-4-yl)methyl)-2,7-diazaspiro[3.5]nonan-2-yl)-1,2,4-triazin-6-yl)oxy)benzamide] | 0.181 µM | 0.141 µM | –
CCN(C(=O)c1cc(F)ccc1Oc1nncnc1N1CC2(CCN(CC3CCN(C(=O)C4CCC4)CC3)CC2)C1)C(C)C [Compound 3] | 0.031 µM | 0.0024 µM | –
C=CC(=O)N1CCC(CN2CCC3(CC2)CN(c2ncnnc2Oc2ccc(F)cc2C(=O)N(CC)C(C)C)C3)CC1 [Compound 20, 2-((5-(7-((1-acryloylpiperidin-4-yl)methyl)-2,7-diazaspiro[3.5]nonan-2-yl)-1,2,4-triazin-6-yl)oxy)-N-ethyl-5-fluoro-N-isopropylbenzamide] | 0.058 µM | 0.0987 µM | –
C=CC(=O)Nc1ccc(N2CC3(CCC(CN4CCC5(CC4)CN(c4ncnnc4Oc4ccc(F)cc4C(=O)N(CC)C(C)C)C5)CC3)C2)cc1 [Compound 180] | 0.01 µM | 0.0039 µM | –
CCN(C(=O)c1cc(F)ccc1Oc1nncnc1N1CC2(CCN(CC3CCN(c4ccc(C)nn4)CC3)CC2)C1)C(C)C [Compound 84] | 0.002 µM | 0.0009 µM | –
CCN(C(=O)c1cc(F)ccc1Oc1nncnc1N1CC2(CCN(Cc3cnc(OC)c(Cl)c3C)CC2)C1)C(C)C [Compound 60] | 0.693 µM | 0.574 µM | –
CCN(C(=O)c1cc(F)ccc1Oc1nncnc1N1CC2(CCN(CC3CCN(c4ccc(C#N)nc4)CC3)CC2)C1)C(C)C [Compound 115] | 0.006 µM | 0.0047 µM | –
CCN(C(=O)c1cc(F)ccc1Oc1nncnc1N1CC2(CCN(Cc3ccc4c(cc(C#N)n4CC(O)C(N)=O)c3C)CC2)C1)C(C)C (centres unmarked) [Compound 148] | 0.221 µM | 0.0053 µM | –
CCN(C(=O)c1cc(F)ccc1Oc1nncnc1N1CC2(CCN(CC3CCN(c4cccc(N)n4)CC3)CC2)C1)C(C)C [Compound 164, 2-((5-(7-((1-(6-aminopyridin-2-yl)piperidin-4-yl)methyl)-2,7-diazaspiro[3.5]nonan-2-yl)-1,2,4-triazin-6-yl)oxy)-N-ethyl-5-fluoro-N-isopropylbenzamide] | 0.027 µM | 0.0046 µM | –
